In ChEMBL document CHEMBL5344429, “1,3-Substituted β-Carboline Derivatives as Potent Chemotherapy for the Treatment of Cystic Echinococcosis” (J Med Chem, 2023):
Calls of active or inactive are those of the source. The rule behind the calls is not given here.

How the values were obtained:
[1] = tested on: Echinococcus granulosus; experiment: Parasiticidal activity against Echinococcus granulosus protoscolices assessed as lethal effect at 0.5 to 5 uM by eosin exclusion test; type: functional, organism-based; details: dose 0.5-5 µM, TDE = time-dependent effect
[2] = tested on: Echinococcus granulosus; experiment: Parasiticidal activity against Echinococcus granulosus assessed as collapse of germinal layers at 100 uM incubated for 4 days by scanning electron microscopy; type: functional, organism-based; details: time 4.0 day
[3] = tested on: Echinococcus granulosus; experiment: Parasiticidal activity against Echinococcus granulosus protoscolices assessed as death rate at 0.5 uM incubated for 4 days by eosin exclusion test; type: functional; details: time 4 day
[4] = Neurotoxicity in Kunming mouse assessed as effect on hippocampal structure at 50 mg/kg, ip administered for 28 days by TEM analysis; type: toxicity, organism-based; details: in vivo, 672 h, time 28 day
[5] = tested on: Echinococcus granulosus; experiment: Parasiticidal activity against Echinococcus granulosus microcyst infected in kunming mouse assessed as reduction in cyst weight at 50 mg/kg, ip administered for 14 days relative to control; type: functional; parameters: scale not given: the % may be the effect or the level left; details: time 14 day
[6] = Neurotoxicity in Kunming mouse assessed as effect on hippocampal arrangement at 50 mg/kg, ip administered for 28 days by TEM analysis; type: toxicity, organism-based; details: in vivo, 672 h, time 28 day
[7] = tested on: Echinococcus granulosus; experiment: Induction of autophagy in Echinococcus granulosus protoscolices assessed as increase in ATG5 expression level at 5 uM measured after 4 days by Western blot analysis; type: functional, organism-based; details: time 4.0 day
[8] = tested on: Echinococcus granulosus; experiment: Parasiticidal activity against Echinococcus granulosus protoscolices assessed as change in ultrastructure at 5 uM incubated for 4 days by scanning electron microscopy; type: functional, organism-based; details: time 4.0 day
[9] = AUC (0 to infinity) in Wistar rat at 5 mg/kg, iv by HPLC analysis; type: ADME, organism-based; parameters: dose 5 mg/kg, route iv; details: in vivo
[10] = Half life in Wistar rat at 5 mg/kg, iv by HPLC analysis; type: ADME, organism-based; details: in vivo
[11] = tested on: Echinococcus granulosus; experiment: Induction of autophagy in Echinococcus granulosus protoscolices assessed as decrease in p62 expression level at 5 uM measured after 4 days by Western blot analysis; type: functional, organism-based; details: time 4.0 day
[12] = Neurotoxicity in Kunming mouse assessed as effect on heterochromatin at 50 mg/kg, ip administered for 28 days by TEM analysis; type: toxicity, organism-based; details: in vivo, 672 h, time 28 day
[13] = tested on: Echinococcus granulosus; experiment: Parasiticidal activity against Echinococcus granulosus protoscolices assessed as appearance of disintegrated marginal structure at 5 uM incubated for 4 days by H and E staining based assay; type: functional, organism-based; details: time 4.0 day
[14] = tested on: Echinococcus granulosus; experiment: Parasiticidal activity against Echinococcus granulosus protoscolices assessed as loss of hooks at 5 uM incubated for 4 days by scanning electron microscopy; type: functional, organism-based; details: time 4.0 day
[15] = Oral bioavailability in Wistar rat at 50 mg/kg, […] by HPLC analysis; type: ADME, organism-based; details: in vivo
[16] = tested on: Echinococcus granulosus; experiment: Parasiticidal activity against intraperitoneal cystic Echinococcus granulosus infected in Kunming mouse assessed as appearance of vacuole-like structure at 50 mg/kg, ip administered for 28 days by TEM analysis; type: functional, organism-based; details: time 28.0 day
[17] = tested on: Echinococcus granulosus; experiment: Parasiticidal activity against Echinococcus granulosus microcyst infected in kunming mouse assessed as reduction in cyst weight at 12.5 mg/kg, ip administered for 14 days relative to control; type: functional; parameters: scale not given: the % may be the effect or the level left; details: time 14 day
[18] = tested on: Echinococcus granulosus; experiment: Parasiticidal activity against Echinococcus granulosus microcyst infected in kunming mouse assessed as mean cyst weight at 12.5 mg/kg, ip administered for 14 days; type: functional; details: time 14 day
[19] = tested on: Echinococcus granulosus; experiment: Parasiticidal activity against Echinococcus granulosus protoscolices assessed as loss of suckers at 5 uM incubated for 4 days by scanning electron microscopy; type: functional; details: time 4 day
[20] = tested on: Echinococcus granulosus; experiment: Parasiticidal activity against Echinococcus granulosus microcyst infected in kunming mouse assessed as mean cyst weight at 50 mg/kg, ip administered for 28 days; type: functional; details: time 28 day
[21] = tested on: Echinococcus granulosus; experiment: Parasiticidal activity against Echinococcus granulosus microcyst infected in kunming mouse assessed as mean cyst weight at 25 mg/kg, ip administered for 14 days; type: functional; details: time 14 day
[22] = Cmax in Wistar rat at 5 mg/kg, iv by HPLC analysis; type: ADME, organism-based; parameters: dose 5 mg/kg, route iv; details: in vivo
[23] = tested on: Echinococcus granulosus; experiment: Parasiticidal activity against Echinococcus granulosus microcyst infected in kunming mouse assessed as reduction in cyst weight at 12.5 mg/kg, ip administered for 28 days relative to control; type: functional; parameters: scale not given: the % may be the effect or the level left; details: time 28 day
[24] = tested on: Echinococcus granulosus; experiment: Parasiticidal activity against Echinococcus granulosus protoscolices assessed as lethal effect incubated for 4 days by eosin exclusion test; type: functional, organism-based; details: dose 0.5-5 µM, time 4.0 day
[25] = tested on: Echinococcus granulosus; experiment: Parasiticidal activity against Echinococcus granulosus microcyst infected in kunming mouse assessed as reduction in cyst weight at 25 mg/kg, ip administered for 28 days relative to control; type: functional; parameters: scale not given: the % may be the effect or the level left; details: time 28 day
[26] = tested on: Echinococcus granulosus; experiment: Parasiticidal activity against Echinococcus granulosus cyst assessed as seperation from cuticle at 100 uM incubated for 4 days by scanning electron microscopy; type: functional, organism-based; details: time 4.0 day
[27] = tested on: Echinococcus granulosus; experiment: Parasiticidal activity against Echinococcus granulosus protoscolices assessed as degeneration of outer skin at 5 uM incubated for 4 days by scanning electron microscopy; type: functional, organism-based; details: time 4.0 day
[28] = tested on: Echinococcus granulosus; experiment: Parasiticidal activity against Echinococcus granulosus microcyst infected in kunming mouse assessed as mean cyst weight at 50 mg/kg, ip administered for 14 days; type: functional; details: time 14 day
[29] = tested on: Echinococcus granulosus; experiment: Parasiticidal activity against Echinococcus granulosus protoscolices assessed as appearance of whole body vacuolation at 5 uM incubated for 4 days by H and E based staining assay; type: functional, organism-based; details: time 4.0 day
[30] = tested on: Echinococcus granulosus; experiment: Parasiticidal activity against Echinococcus granulosus protoscolices assessed as increase in death rate at 5 uM incubated for 4 days by darker staining-based light microscopy; type: functional, organism-based; details: time 4.0 day
[31] = Neurotoxicity in Kunming mouse assessed as deformed pyramidal cells in brain at 50 mg/kg, ip administered for 28 days by H and E staining based assay; type: toxicity, organism-based; details: in vivo, 672 h, time 28 day
[32] = tested on: Echinococcus granulosus; experiment: Parasiticidal activity against intraperitoneal cystic Echinococcus granulosus infected in Kunming mouse assessed as disappearance of nucleolus at 50 mg/kg, ip administered for 28 days by TEM analysis; type: functional, organism-based; details: time 28.0 day
[33] = tested on: Echinococcus granulosus; experiment: Potency index, ratio of Albendazole LC50 to test compound LC50 for Parasiticidal activity against Echinococcus granulosus protoscolices; type: functional
[34] = Neurotoxicity in Kunming mouse assessed as loosely arranged pyramidal cells in brain at 50 mg/kg, ip administered for 28 days by H and E staining based assay; type: toxicity, organism-based; details: in vivo, 672 h, time 28 day
[35] = tested on: Echinococcus granulosus; experiment: Parasiticidal activity against Echinococcus granulosus protoscolices assessed as appearance of dissolved and disappeared matrix at 5 uM incubated for 4 days by H and E staining based assay; type: functional, organism-based; details: time 4.0 day
[36] = tested on: Echinococcus granulosus; experiment: Parasiticidal activity against Echinococcus granulosus protoscolices assessed as death rate at 5 uM incubated for 4 days by eosin exclusion test; type: functional; details: time 4 day
[37] = Neurotoxicity in Kunming mouse assessed as organelles damage at 50 mg/kg, ip administered for 28 days by TEM analysis; type: toxicity, organism-based; details: in vivo, 672 h, time 28 day
[38] = Neurotoxicity in Kunming mouse assessed as swollen pyramidal cells in brain at 50 mg/kg, ip administered for 28 days by H and E staining based assay; type: toxicity, organism-based; details: in vivo, 672 h, time 28 day
[39] = tested on: Echinococcus granulosus; experiment: Parasiticidal activity against Echinococcus granulosus microcyst infected in kunming mouse assessed as mean cyst weight at 12.5 mg/kg, ip administered for 28 days; type: functional; details: time 28 day
[40] = tested on: Echinococcus granulosus; experiment: Parasiticidal activity against Echinococcus granulosus protoscolices […] by eosin exclusion test; type: functional; details: 1152 h, time 48 day
[41] = tested on: Echinococcus granulosus; experiment: Parasiticidal activity against intraperitoneal cystic Echinococcus granulosus infected in Kunming mouse assessed as cell structure destruction at 50 mg/kg, ip administered for 28 days by TEM analysis; type: functional, organism-based; details: time 28.0 day
[42] = tested on: Echinococcus granulosus; experiment: Induction of autophagy in Echinococcus granulosus protoscolices assessed as increase in Beclin1 expression level at 5 uM measured after 4 days by Western blot analysis; type: functional, organism-based; details: time 4.0 day
[43] = tested on: Echinococcus granulosus; experiment: Parasiticidal activity against Echinococcus granulosus microcyst infected in kunming mouse assessed as mean cyst weight at 25 mg/kg, ip administered for 28 days; type: functional; details: time 28 day
[44] = Half life in Wistar rat at 50 mg/kg, ip by HPLC analysis; type: ADME, organism-based; details: in vivo
[45] = tested on: Echinococcus granulosus; experiment: Parasiticidal activity against Echinococcus granulosus microcyst infected in kunming mouse assessed as reduction in cyst weight at 50 mg/kg, ip administered for 28 days relative to control; type: functional; parameters: scale not given: the % may be the effect or the level left; details: time 28 day
[46] = tested on: Echinococcus granulosus; experiment: Parasiticidal activity against Echinococcus granulosus cyst assessed as formation of dense aggregates at 100 uM incubated for 4 days by scanning electron microscopy; type: functional, organism-based; details: time 4.0 day
[47] = tested on: Echinococcus granulosus; experiment: Parasiticidal activity against Echinococcus granulosus microcyst infected in kunming mouse assessed as reduction in cyst weight at 25 mg/kg, ip administered for 14 days relative to control; type: functional; parameters: scale not given: the % may be the effect or the level left; details: time 14 day
[48] = Neurotoxicity in Kunming mouse assessed as nuclei damage at 50 mg/kg, ip administered for 28 days by TEM analysis; type: toxicity, organism-based; details: in vivo, 672 h, time 28 day
[49] = tested on: Echinococcus granulosus; experiment: Inhibition of Echinococcus granulosus; type: functional
[50] = tested on: Echinococcus granulosus; experiment: Antiparasitic acitivity against Echinococcus granulosus infected at 25 mg/kg; type: functional
[51] = tested on: Echinococcus granulosus; experiment: Parasiticidal activity against Echinococcus granulosus protoscolices assessed as appearance of body shrank at 5 uM incubated for 4 days by scanning electron microscopy analysis; type: functional, organism-based; details: time 4.0 day
[52] = tested on: Echinococcus granulosus; experiment: Parasiticidal activity against Echinococcus granulosus protoscolices assessed as partial vacuolar change at 5 uM incubated for 4 days by scanning electron microscopy analysis; type: functional, organism-based; details: time 4.0 day
[53] = tested on: Echinococcus granulosus; experiment: Parasiticidal activity against Echinococcus granulosus protoscolices assessed as appearance of blurred marginal structure at 5 uM incubated for 4 days by scanning electron microscopy analysis; type: functional, organism-based; details: time 4.0 day
[54] = tested on: Echinococcus granulosus; experiment: Potency index, ratio of Harmine LC50 to test compound LC50 for Parasiticidal activity against Echinococcus granulosus protoscolices; type: functional
[55] = tested on: Echinococcus granulosus; experiment: Parasiticidal activity against Echinococcus granulosus protoscolices assessed as appearance of rostellum hooks fall off at 5 uM incubated for 4 days by scanning electron microscopy analysis; type: functional, organism-based; details: time 4.0 day

COc1ccc(-c2nc(NC(=O)c3ccc(CN4CCC(O)CC4)cc3)cc3c2[nH]c2ccccc23)cc1
Activity [1]: Tde
Activity [2]: Active
Activity [3]: >50%
Activity [4]: Non-Toxic
Activity [5]: 73.35%
Activity [6]: Non-Toxic
Activity [7]: Active
Activity [8]: Active
AUC(0-inf) [9]: 3000 ng·h/mL
half-life [10]: 3.11 h
Activity [11]: Active
Activity [12]: Non-Toxic
Activity [13]: Active
Activity [14]: Active
bioavailability [15]: 42.4%
Activity [16]: Active
Activity [17]: 59.41%
Activity [18]: 20.9 mg
Activity [19]: 67.5%
Activity [20]: 12.6 mg
Activity [21]: 18.1 mg
Cmax [22]: 3040 ng/mL
Activity [23]: 51.12%
Activity [24]: Dose-Dependent Effect
Activity [25]: 72.05%
Activity [26]: Active
Activity [27]: Active
Activity [28]: 13.7 mg
Activity [29]: Active
Activity [30]: Active
Activity [31]: Non-Toxic
Activity [32]: Active
RatioLC50 [33]: 95
Activity [34]: Non-Toxic
Activity [35]: Active
Activity [36]: >90%
Activity [37]: Non-Toxic
Activity [38]: Non-Toxic
Activity [39]: 17.8 mg
LC50 [40]: 1610 nM
Activity [41]: Active
Activity [42]: Active
Activity [43]: 15.2 mg
half-life [44]: 9.08 h
Activity [45]: 76.87%
Activity [46]: Active
Activity [47]: 64.79%
Activity [48]: Non-Toxic

CCCCn1c2ccccc2c2ccnc(-c3ccccc3Cl)c21
LC50 [49]: 41600 nM
Activity [50]: 32.91%

Cc1nc(NC(=O)c2ccc(CN3CCC(N4CCCCC4)CC3)cc2)cc2c1[nH]c1ccccc12
Activity [1]: Tde
Activity [2]: Active
Activity [51]: Active
Activity [3]: >50%
Activity [52]: Active
Activity [8]: Active
AUC(0-inf) [9]: 1410 ng·h/mL
Activity [53]: Active
Activity [14]: Active
bioavailability [15]: 15.5%
RatioLC50 [54]: 84
Activity [19]: 59.4%
Cmax [22]: 1120 ng/mL
Activity [24]: Dose-Dependent Effect
Activity [26]: Active
Activity [27]: Active
Activity [30]: Active
Activity [55]: Active
Activity [36]: >90%
LC50 [40]: 2390 nM
Activity [46]: Active
